Data from patent US9321809B2, “Macrocyclic compounds for suppressing replication of hepatitis C virus” (Ginkgo Pharma Co., Ltd., priority 2012, dated 2016).

Test system: HCV replicon-containing huh-7 cells (replicon 1b)
Experiment: HCV Replicon Assay (luciferase readout)
Format: cell-based
Conditions: Hepatitis C virus; HCV replicon 1b in huh-7 cells, 48 h incubation, 1% DMSO, luciferase signal; read-out: EC50 (EC 50 on replicon 1b)
Experimental: Compounds of formuala (I) are tested for the ability to inhibit viral replication of the Hepatitis C viruses by the following in vitro assays.
DMEM (Life Technologies #41965-039) was supplemented with 10% FBS, 2 mM L-glutamine (Life Technologies #25030-024), penicillin (100 units/ml)/streptomycin (100 micrograms/ml) (Life Technologies #15140-114), 1× non-essential amino acids (Life Technologies #11140-035).
Complete media was prepared by mixing FBS, DMEM media with Geneticin (G418). The compete media was preincubated at 37° C. in a CO2 incubator. Then, HCV replicon-containing huh-7 cells (V. Lohmann et. al. Science, 285, (1999)110-113) was taken out from 37° C. incubator. The residual medium was absorbed, and the cells were washed with PBS. After washing fluid was removed, 1 ml 0.25% trypsin/0.02% EDTA solution. The cells were washed by the above trypsin/EDTA solution to make sure that each cell was cleaned. After the trypsin/EDTA solution was absorbed, the mixture was incubated at 37° C. in a CO2 incubator for 3-5 minutes. Morphological changes were observed by inverted microscope, till the cells were detached from the wall of container completely.
3 ml of complete media was added to make the cells to suspend. The cells are counted with hematometer. Appropriate volumes of the complete media was added to adjust the cell density to 100,000/ml. Cells were plated with 100 μl of suspension at 10,000/well of 96 well plate. Plates were placed into 37° C. 5% CO2 incubator for 24 h.
Preparation of Drug Solution:
Drugs were diluted under aseptic conditions.
Stock solutions may be prepared before the assay, which means that the test compounds are dissolved in 100% DMSO to afford a final concentration of 2 mM. Before the 96 well culture was completed, the stock solution was diluted with culter media to 100 fold of the final concentration (100× solution).
96-well plates were taken out from 37° C. CO2 incubator and morphological changes were observed by inverted microscope. In a ventilator, 1 μl of 100× drug solution was added to wells of 96 well plate until the final concentration of DMSO in the mixture is 1%. The plates were incubated at 37° C. in a CO2 environment for 48 h. 30 μl of Stead-G1® Luciferase Assay System (bought from Promega) was added to each well of 96 well plates and each plate is shaken in a plate shaker for 5 minutes to ensure cells cleavaged completely. The fluorescence signal was quantitated in a Perkin-Elmer plate reader (Envision) and integral time was setted to be 2 second. The following data were achieved after recording and analyzing the data.

Row | SMILES | EC50 [nM]
1 | C=C[C@@H]1C[C@]1(NC(=O)[C@@H]1C[C@@H]2CN1C(=O)[C@H](C(C)(C)C)NC(=O)[C@@H](NC(=O)OC(C)(C)C)CSC/C=C/c1cccc3c1CN(C3)C(=O)O2)C(=O)NS(=O)(=O)C1CC1 [Compound IIa-21, tert-butyl N-[(1R,12E,17R,20S,23S)-20-tert-butyl-23-{[(1R,2S)-1-[(cyclopropanesulfonyl)carbamoyl]-2-ethenylcyclopropyl]carbamoyl}-3,18,21-trioxo-2-oxa-15-thia-4,19,22-triazatetracyclo[20.2.1.1^4,7.0^6,11]hexacosa-6,8,10,12-tetraen-17-yl]carbamate] | 10 to 50
2 | C=C[C@@H]1C[C@]1(NC(=O)[C@@H]1C[C@@H]2CN1C(=O)[C@H](C(C)(C)C)NC(=O)[C@@H](NC(=O)c1cnccn1)COC/C=C/c1cccc3c1CN(C3)C(=O)O2)C(=O)NS(=O)(=O)C1CC1 [Compound IIa-5, (1R,12E,17S,20S,23S)-20-tert-butyl-23-N-[(1R,2S)-1-[(cyclopropanesulfonyl)carbamoyl]-2-ethenylcyclopropyl]-3,18,21-trioxo-17-C-pyrazine-2-2,15-dioxa-4,19,22-triazatetracyclo[20.2.1.1^4,7.0^6,11]hexacosa-6,8,10,12-tetraene-17,23-diamido] | 50 to 500
3 | C=C[C@@H]1C[C@]1(NC(=O)[C@@H]1C[C@@H]2CN1C(=O)[C@H](C1CCCCC1)NC(=O)[C@@H](NC(=O)OC(C)(C)C)COCCCc1cc3c(nccc3cc1OC)O2)C(=O)NS(=O)(=O)C1CC1 [Compound IIb-4, tert-butyl N-[(3R,5S,8S,11S)-8-cyclohexyl-5-{[(1R,2S)-1-[(cyclopropanesulfonyl)carbamoyl]-2-ethenylcyclopropyl]carbamoyl}-18-methoxy-7,10-dioxo-2,13-dioxa-6,9,23-triazatetracyclo[15.6.2.1^3,6.0^20,24]hexacosa-1(23),17(25),18,20(24),21-pentaen-11-yl]carbamate] | < 10
4 | CCC1C[C@]1(NC(=O)[C@@H]1C[C@@H]2CN1C(=O)[C@H](C1CCCCC1)NC(=O)[C@@H](NC(=O)OC(C)(C)C)COCCCc1cc3c(nccc3cc1OC)O2)C(=O)NS(=O)(=O)C1CC1 (stereo in doubt) [Compound IIb-6, tert-butyl N-[(3R,5S,8S,11S)-8-cyclohexyl-5-{[(1R,2S)-1-[(cyclopropanesulfonyl)carbamoyl]-2-ethylcyclopropyl]carbamoyl}-18-methoxy-7,10-dioxo-2,13-dioxa-6,9,23-triazatetracyclo[15.6.2.1^3,6.0^20,24]hexacosa-1(23),17(25),18,20(24),21-pentaen-11-yl]carbamate] | 50 to 500
5 | C=C[C@@H]1C[C@]1(NC(=O)[C@@H]1C[C@@H]2CN1C(=O)[C@H](C(C)(C)C)NC(=O)[C@H](NC(=O)c1cnccn1)COC/C=C/c1cccc3c1CN(C3)C(=O)O2)C(=O)NS(=O)(=O)C1CC1 [Compound IIa-6, (1R,12E,17R,20S,23S)-20-tert-butyl-23-N-[(1R,2S)-1-[(cyclopropanesulfonyl)carbamoyl]-2-ethenylcyclopropyl]-3,18,21-trioxo-17-C-pyrazine-2-2,15-dioxa-4,19,22-triazatetracyclo[20.2.1.1^4,7.0^6,11]hexacosa-6,8,10,12-tetraene-17,23-diamido] | 50 to 500
6 | C=C[C@@H]1C[C@]1(NC(=O)[C@@H]1C[C@@H]2CN1C(=O)[C@H](C(C)(C)C)NC(=O)[C@@H](NC(=O)NC(C)(C)C)COC/C=C/c1cccc3c1CN(C3)C(=O)O2)C(=O)NS(=O)(=O)C1CC1 [Compound IIa-12, (1R,12E,17S,20S,23S)-20-tert-butyl-17-[(tert-butylcarbamoyl)amino]-N-[(1R,2S)-1-[(cyclopropanesulfonyl)carbamoyl]-2-ethenylcyclopropyl]-3,18,21-trioxo-2,15-dioxa-4,19,22-triazatetracyclo[20.2.1.1^4,7.0^6,11]hexacosa-6,8,10,12-tetraene-23-carboxamide] | < 10
7 | C=C[C@@H]1C[C@]1(NC(=O)[C@@H]1C[C@@H]2CN1C(=O)[C@H](C(C)(C)C)NC(=O)[C@@H](NC(=O)OCC)COC/C=C/c1cccc3c1CN(C3)C(=O)O2)C(=O)NS(=O)(=O)C1CC1 [Compound IIa-9, ethyl N-[(1R,12E,17S,20S,23S)-20-tert-butyl-23-{[(1R,2S)-1-[(cyclopropanesulfonyl)carbamoyl]-2-ethenylcyclopropyl]carbamoyl}-3,18,21-trioxo-2,15-dioxa-4,19,22-triazatetracyclo[20.2.1.1^4,7.0^6,11]hexacosa-6,8,10,12-tetraen-17-yl]carbamate] | 10 to 50
8 | CC[C@@H]1C[C@]1(NC(=O)[C@@H]1C[C@@H]2CN1C(=O)[C@H](C1CCCCC1)NC(=O)[C@@H](NC(=O)OC(C)(C)C)COC/C=C/c1cccc3c1CN(C3)C(=O)O2)C(=O)NS(=O)(=O)C1CC1 [Compound IIa-19, tert-butyl N-[(1R,12E,17S,20S,23S)-20-cyclohexyl-23-{[(1R,2R)-1-[(cyclopropanesulfonyl)carbamoyl]-2-ethylcyclopropyl]carbamoyl}-3,18,21-trioxo-2,15-dioxa-4,19,22-triazatetracyclo[20.2.1.1^4,7.0^6,11]hexacosa-6,8,10,12-tetraen-17-yl]carbamate] | < 10
9 | C=C[C@@H]1C[C@]1(NC(=O)[C@@H]1C[C@@H]2CN1C(=O)[C@H](C(C)(C)C)NC(=O)[C@@H](NC(C)=O)COC/C=C/c1cccc3c1CN(C3)C(=O)O2)C(=O)NS(=O)(=O)C1CC1 [Compound IIa-7, (1R,12E,17S,20S,23S)-20-tert-butyl-N-[(1R,2S)-1-[(cyclopropanesulfonyl)carbamoyl]-2-ethenylcyclopropyl]-17-acetamido-3,18,21-trioxo-2,15-dioxa-4,19,22-triazatetracyclo[20.2.1.1^4,7.0^6,11]hexacosa-6,8,10,12-tetraene-23-carboxamide] | 50 to 500
10 | C=C[C@@H]1C[C@]1(NC(=O)[C@@H]1C[C@@H]2CN1C(=O)[C@H](C1CCCC1)NC(=O)[C@@H](NC(=O)OC(C)(C)C)COC/C=C/c1cccc3c1CN(C3)C(=O)O2)C(=O)NS(=O)(=O)C1CC1 [Compound IIa-22, tert-butyl N-[(1R,12E,17S,20S,23S)-20-cyclopentyl-23-{[(1R,2S)-1-[(cyclopropanesulfonyl)carbamoyl]-2-ethenylcyclopropyl]carbamoyl}-3,18,21-trioxo-2,15-dioxa-4,19,22-triazatetracyclo[20.2.1.1^4,7.0^6,11]hexacosa-6,8,10,12-tetraen-17-yl]carbamate] | < 10
11 | C=C[C@@H]1C[C@]1(NC(=O)[C@@H]1C[C@@H]2CN1C(=O)[C@H](C1CCCCC1)NC(=O)[C@@H](NC(=O)OC(C)(C)C)COC/C=C/c1cc3c(nccc3cc1OC)O2)C(=O)O [Compound IIb-7, tert-butyl N-[(3R,5S,8S,11S,15E)-8-cyclohexyl-5-{[(1R,2S)-1-hydroxycarbonyl-2-ethenylcyclopropyl]carbamoyl}-18-methoxy-7,10-dioxo-2,13-dioxa-6,9,23-triazatetracyclo[15.6.2.13,6.020,24]hexacosa-1(23),15,17(25),18,20(24),21-hexaen-11-yl]carbamate] | 500 to 20000
12 | C=C[C@@H]1C[C@]1(NC(=O)[C@@H]1C[C@@H]2CN1C(=O)[C@H](C(C)(C)C)NC(=O)[C@@H](NC(=O)OC(C)(C)C)COCCCc1cc3c(nccc3cc1OC)O2)C(=O)NS(=O)(=O)C1CC1 [Compound IIb-2, tert-butyl N-[(3R,5S,8S,11S)-8-tert-butyl-5-{[(1R,2S)-1-[(cyclopropanesulfonyl)carbamoyl]-2-ethenylcyclopropyl]carbamoyl}-18-methoxy-7,10-dioxo-2,13-dioxa-6,9,23-triazatetracyclo[15.6.2.1^3,6.0^20,24]hexacosa-1(23),17(25),18,20(24),21-pentaen-11-yl]carbamate] | < 10
13 | CC[C@@H]1C[C@]1(NC(=O)[C@@H]1C[C@@H]2CN1C(=O)[C@H](C(C)(C)C)NC(=O)[C@@H](NC(=O)OC(C)(C)C)COCCCc1cccc3c1CN(C3)C(=O)O2)C(=O)NS(=O)(=O)C1CC1 [Compound IIa-14, tert-butyl N-[(1R,17S,20S,23S)-20-tert-butyl-23-{[(1R,2R)-1-[(cyclopropanesulfonyl)carbamoyl]-2-ethylcyclopropyl]carbamoyl}-3,18,21-trioxo-2,15-dioxa-4,19,22-triazatetracyclo[20.2.1.1^4,7.0^6,11]hexacosa-6,8,10-trien-17-yl]carbamate] | 50 to 500
